Data published in article PMC13503280, “A pharmacological modality to sequester homomeric proteins” (Nature Chemical Biology, 2026).

Legend:
recombinant NQO2 = molecular target: T1, recombinant NQO2 (Homo sapiens, UniProt P16083); assay: DLS of recombinant NQO2; assay type: biochemical; settings: recombinant NQO2, room temperature, over time
T1 construct: made in house; host or cells: E. coli BL21(DE3)
T1 sequence (P16083 1-231): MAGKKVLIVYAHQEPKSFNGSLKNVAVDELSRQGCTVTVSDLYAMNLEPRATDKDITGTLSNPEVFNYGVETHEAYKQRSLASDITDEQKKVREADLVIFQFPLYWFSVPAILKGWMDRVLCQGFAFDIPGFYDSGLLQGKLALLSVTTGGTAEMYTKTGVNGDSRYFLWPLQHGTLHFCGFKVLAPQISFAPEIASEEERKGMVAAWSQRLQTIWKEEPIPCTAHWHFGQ
Experimental: (§1) DLS samples were prepared in the respective protein’s elution buffer, to which 0.01% Tween was added, along with the compound from a DMSO stock to obtain a final DMSO concentration of 2%. Samples were prepared at room temperature and measured at a constant temperature of 25 °C. All samples were passed through 0.1-μm filters and then placed in a clear-bottom black 384-well plate. DLS data were recorded using a DynaproPlate Reader III (Wyatt Technology). Data were processed with the supplied DYNAMICS software.

Keap1 = Keap1 (Homo sapiens, UniProt Q14145); assay: WB of Keap1 in OCI-AML2 cells (soluble/insoluble phase); assay type: cell-based; parameters: endogenous in cells; host or cells: OCI-AML2; settings: OCI-AML2 cells, 20 h treatment; for EC50: read-out: EC50 (Keap1 downregulation, WB)
Sequence of Keap1 (Q14145 whole entry): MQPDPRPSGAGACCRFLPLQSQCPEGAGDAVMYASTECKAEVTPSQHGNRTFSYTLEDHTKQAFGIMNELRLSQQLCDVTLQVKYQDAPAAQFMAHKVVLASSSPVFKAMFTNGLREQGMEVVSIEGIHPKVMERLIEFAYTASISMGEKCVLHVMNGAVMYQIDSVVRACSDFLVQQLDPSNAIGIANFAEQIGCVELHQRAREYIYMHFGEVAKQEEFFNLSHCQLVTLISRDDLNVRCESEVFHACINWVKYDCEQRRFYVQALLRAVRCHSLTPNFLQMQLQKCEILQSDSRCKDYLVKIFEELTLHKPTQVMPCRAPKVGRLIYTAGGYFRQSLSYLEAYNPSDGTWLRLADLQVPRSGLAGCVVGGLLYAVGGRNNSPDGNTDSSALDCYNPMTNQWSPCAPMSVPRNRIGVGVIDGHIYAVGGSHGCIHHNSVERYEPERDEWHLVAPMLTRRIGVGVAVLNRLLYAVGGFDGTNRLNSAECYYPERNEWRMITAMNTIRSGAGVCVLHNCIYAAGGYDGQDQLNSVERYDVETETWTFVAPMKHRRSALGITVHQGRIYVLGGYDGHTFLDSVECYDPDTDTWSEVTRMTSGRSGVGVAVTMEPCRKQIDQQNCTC
Experimental: (§2) Cells were incubated with DMSO at 0.1% or with compound in concentrations ranging 10–20,000 nM for 20 h unless indicated differently. Following incubation, lysis was performed in RIPA buffer and the samples were measured for total protein quantification by BCA assay (Thermo Fisher Scientific, 23225). Then, 20–40 μg of each sample was loaded and run on an SDS–PAGE gel, before transferring onto a nitrocellulose membrane using a Trans-Blot Turbo system (Bio-Rad) and blocking using a 5% BSA in TBS-T (w/v) solution for 1 h at room temperature. Incubation with primary antibodies (mouse anti-BCL-6 (sc-7388, Santa Cruz, 1:500; overnight at 4 °C), mouse anti-Keap1 (sc-365626, Santa Cruz, 1:500; overnight at 4 °C), rabbit anti-LDHA (4H18L6, Thermo Fisher, 1:1,000; overnight at 4 °C), mouse anti-NQO2 (sc-271665, Santa Cruz, 1:500; overnight at 4 °C), rabbit anti-c-Myc (5605, Cell Signaling, 1:1,000; overnight at 4 °C) and mouse anti-β-actin (3700, Cell Signaling, 1:1,000; 1 h at room temperature) was performed and then the membranes were washed and incubated with a horseradish-peroxidase-conjugated secondary antibody (mouse 7076/rabbit 7074, Cell Signaling) at room temperature for 1 h. Imaging of the chemiluminescence signal was performed using a ChemiDoc XRS+ instrument (Bio-Rad). Primary band quantifications were normalized against β-actin bands.

recombinant Keap1 BTB = molecular target: T2, recombinant Keap1 BTB (Homo sapiens, UniProt Q14145, S172A); assay: DLS of recombinant Keap1 BTB domain; assay type: biochemical; settings: 50 μM Keap1 BTB, 50 μM compound, room temperature, over time
T2 construct: The Keap1 BTB domain (48–180) encoding the single substitution S172A was cloned into pET28-bdSumo vector; His–bdSumo (N, cleaved yes); made in house; host or cells: E. coli BL21(DE3)
T2 sequence (Q14145 48-180 S172A): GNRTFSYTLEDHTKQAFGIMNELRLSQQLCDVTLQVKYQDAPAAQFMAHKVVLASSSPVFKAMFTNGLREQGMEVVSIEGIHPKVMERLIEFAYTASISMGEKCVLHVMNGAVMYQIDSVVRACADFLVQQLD
Experimental: as §1

NQO1 expression = assay: qPCR for NQO1 expression in OCI-AML2 cells after washout; assay type: cell-based; settings: OCI-AML2, 250 nM 20 h, from 48 h after treatment
Experimental: Cells were treated with either DMSO or compound at 250 nM, followed by washing out the treated medium after 20 h and reseeding in fresh medium. Cells were then collected at several time points post washout. Total RNA was extracted using RNeasy mini kit (Qiagen, 74104). […] PCR amplification was carried out in Step-One Plus thermocycler (Applied Biosystems). Relative quantification was performed using standard curves. GAPDH was used for normalization.

OCI-AML2 cells = assay: Viability measurements, OCI-AML2 cells; assay type: cell-based; settings: OCI-AML2, 72 h
Experimental: (§3) Cells were seeded in a transparent-bottom, black 96-well plate, at 15,000 cells per well in sixfold replications. in 90 µl of medium and left to adhere for at least 4 h. The cells were then treated with the respective compound by adding 10 µl of medium–-compound mixture for a final volume of 100 µl in each well. Cell-Titer blue reagent was used to measure viability according to the manufacturer’s instructions. Plate reader measurements were performed on a Tecan Spark Control 10 M fluorescence system.

U2OS cells = assay: Viability measurements, U2OS cells; assay type: cell-based; settings: 72 h
Experimental: as §3

Nrf2 = assay: WB of Nrf2; assay type: cell-based; settings: U2OS cells, 20 h compound treatment
BCL6 = molecular target: T3, BCL6 (Homo sapiens, UniProt P41182); assay: WB of BCL6 levels in Mino cells (soluble/insoluble fraction); assay type: cell-based; settings: 20 h incubation
T3 construct: in Mino cells, as BCL6 is mostly expressed in B cells; endogenous in cells; host or cells: Mino (ATCC CRL-3000)
Experimental: Cells were incubated with DMSO at 0.1% or with compound in concentrations ranging 10–20,000 nM for 20 h unless indicated differently. […] Then, 20–40 μg of each sample was loaded and run on an SDS–PAGE gel, before transferring onto a nitrocellulose membrane using a Trans-Blot Turbo system (Bio-Rad) and blocking using a 5% BSA in TBS-T (w/v) solution for 1 h at room temperature. […] Imaging of the chemiluminescence signal was performed using a ChemiDoc XRS+ instrument (Bio-Rad). Primary band quantifications were normalized against β-actin bands.

c-Myc = assay: WB of c-Myc protein levels in Mino cells; assay type: cell-based; settings: 20 h
Experimental: as §2

Mino cells = assay: Viability measurements, Mino cells; assay type: cell-based; settings: Mino cells, 72 h
Experimental: as §3

Ramos cells = assay: Viability measurements, Ramos cells; assay type: cell-based; settings: Ramos cells, 72 h
Experimental: as §3

HEK 293 cells = assay: Viability measurements, HEK 293 cells; assay type: cell-based; settings: HEK 293 cells (lack BCL6 expression), 72 h
Experimental: as §3

Keap1 and BCL6 = Keap1 and BCL6 (Homo sapiens, UniProt P41182+Q14145); assay: WB of Keap1 and BCL6 in Mino cells (hetero-PINCH); assay type: cell-based; parameters: Mino cells that express high levels of BCL6; endogenous in cells; host or cells: Mino; OCI-AML2; settings: 20 h
Experimental: as §2

Cc1ccc(-c2cn3cccc(C)c3n2)cc1S(=O)(=O)N1CCN(C(=O)CCOCCOCCOCCOCCOCCOCCOCCOCCOCCOCCC(=O)N2CCN(S(=O)(=O)c3cc(-c4cn5cccc(C)c5n4)ccc3C)CC2)CC1 [EL241]
formation of larger species (DLS) (recombinant NQO2): little to no effect in polymerizing NQO2

CC1(C)CCC2(C(=O)NCC3CCC(CNC(=O)C45CCC(C)(C)CC4C4C(=O)C=C6C7(C)C=C(C#N)C(=O)C(C)(C)C7CCC6(C)C4(C)CC5)CC3)CCC3(C)C(C(=O)C=C4C5(C)C=C(C#N)C(=O)C(C)(C)C5CCC43C)C2C1 (stereo not shown) [EL159]
Keap1 in soluble and insoluble fraction (WB activity) (Keap1): no activity

CC1(C)CCC2(C(=O)NCCOCCOCCOCCOCCOCCOCCOCCOCCOCCOCCOCCOCCOCCNC(=O)C34CCC(C)(C)CC3C3C(=O)C=C5C6(C)C=C(C#N)C(=O)C(C)(C)C6CCC5(C)C3(C)CC4)CCC3(C)C(C(=O)C=C4C5(C)C=C(C#N)C(=O)C(C)(C)C5CCC43C)C2C1 (stereo not shown) [EL229]
Keap1 in soluble and insoluble fraction (WB activity) (Keap1): reduced Keap1 in the cell’s soluble fraction and induced its accumulation in the insoluble fraction

Cc1ccc(-c2cn3cccc(C)c3n2)cc1S(=O)(=O)N1CCN(C(=O)COCCOCC(=O)N2CCN(S(=O)(=O)c3cc(-c4cn5cccc(C)c5n4)ccc3C)CC2)CC1 [EL245]
formation of larger species (DLS) (recombinant NQO2): ability to form larger species in solution

CC1(C)CCC2(C(=O)NCCSCCSCCNC(=O)C34CCC(C)(C)CC3C3C(=O)C=C5C6(C)C=C(C#N)C(=O)C(C)(C)C6CCC5(C)C3(C)CC4)CCC3(C)C(C(=O)C=C4C5(C)C=C(C#N)C(=O)C(C)(C)C5CCC43C)C2C1 (stereo not shown) [EL164]
EC50 (Keap1): 434 nM

CC1(C)CCC2(C(=O)NCCCCCCCCNC(=O)C34CCC(C)(C)CC3C3C(=O)C=C5C6(C)C=C(C#N)C(=O)C(C)(C)C6CCC5(C)C3(C)CC4)CCC3(C)C(C(=O)C=C4C5(C)C=C(C#N)C(=O)C(C)(C)C5CCC43C)C2C1 (stereo not shown) [EL163]
Keap1 in soluble and insoluble fraction (WB activity) (Keap1): no activity

CC1(C)CCC2(C(=O)NCCCCCCNC(=O)C34CCC(C)(C)CC3C3C(=O)C=C5C6(C)C=C(C#N)C(=O)C(C)(C)C6CCC5(C)C3(C)CC4)CCC3(C)C(C(=O)C=C4C5(C)C=C(C#N)C(=O)C(C)(C)C5CCC43C)C2C1 (stereo not shown) [EL132]
formation of large species (DLS) (recombinant Keap1 BTB): formation of large species over time
EC50 (Keap1): 1020 nM

Bardoxolone [BDX, reference compound]
duration of NQO1 upregulation after washout (NQO1 expression): returned closer to its original level
formation of large species (DLS) (recombinant Keap1 BTB): did not appear
IC50 (OCI-AML2 cells): 1000 nM
IC50 (U2OS cells): 723 nM
Nrf2 levels (WB) (Nrf2): Nrf2 upregulation

CNC(=O)COc1cc2cc(Nc3nc(N4C[C@H](C)C[C@H](C)C4)ncc3Cl)ccc2n(C)c1=O [BI-3802, reference compound]
BCL6 in soluble and insoluble fraction (WB) (BCL6): no accumulation in the insoluble fraction
c-Myc protein levels (WB) (c-Myc): no such effect on c-Myc
effect on viability (Mino cells): no viability effect
effect on viability (Ramos cells): no viability effect
effect on viability (HEK 293 cells): no compound affected the viability

CC1(C)CCC2(C(=O)NCC(=O)N3CCN(C(=O)CNC(=O)C45CCC(C)(C)CC4C4C(=O)C=C6C7(C)C=C(C#N)C(=O)C(C)(C)C7CCC6(C)C4(C)CC5)CC3)CCC3(C)C(C(=O)C=C4C5(C)C=C(C#N)C(=O)C(C)(C)C5CCC43C)C2C1 (stereo not shown) [EL174]
Keap1 in soluble and insoluble fraction (WB activity) (Keap1): no activity

CC1(C)CCC2(C(=O)NCCOCCNC(=O)C34CCC(C)(C)CC3C3C(=O)C=C5C6(C)C=C(C#N)C(=O)C(C)(C)C6CCC5(C)C3(C)CC4)CCC3(C)C(C(=O)C=C4C5(C)C=C(C#N)C(=O)C(C)(C)C5CCC43C)C2C1 (stereo not shown) [EL147]
Keap1 in soluble and insoluble fraction (WB activity) (Keap1): no activity

Cc1ccc(-c2cn3cccc(C)c3n2)cc1S(=O)(=O)N1CCN(C(=O)COCC(=O)N2CCN(S(=O)(=O)c3cc(-c4cn5cccc(C)c5n4)ccc3C)CC2)CC1 [EL244]
formation of larger species (DLS) (recombinant NQO2): ability to form larger species in solution

CC1(C)CC[C@]2(C(=O)NCCOCCOCCOCCOCCOCCOCCOCCOCCOCCOCCOCCOCCOCCN)CC[C@]3(C)[C@H](C(=O)C=C4[C@@]5(C)C=C(C#N)C(=O)C(C)(C)[C@@H]5CC[C@]43C)[C@@H]2C1 [compound 24]
Keap1 and BCL6 levels in soluble/insoluble phase (WB) (Keap1 and BCL6): did not induce such effects on either target

Cc1ccc(-c2cn3cccc(C)c3n2)cc1S(=O)(=O)N1CCN(C(=O)COCCOCCOCC(=O)N2CCN(S(=O)(=O)c3cc(-c4cn5cccc(C)c5n4)ccc3C)CC2)CC1 [EL246]
formation of larger species (DLS) (recombinant NQO2): ability to form larger species in solution

COc1cc(Nc2cc(NCc3cccc(S(=O)(=O)F)c3)ccc2Cl)cc2cc(OCC(=O)NCCOCCOCCOCCOCCOCCOCCOCCOCCOCCOCCOCCOCCOCCN)c(=O)n(C)c12 [compound 23]
Keap1 and BCL6 levels in soluble/insoluble phase (WB) (Keap1 and BCL6): did not induce such effects on either target

CC1(C)CCC2(C(=O)NCCN3CCN(CCNC(=O)C45CCC(C)(C)CC4C4C(=O)C=C6C7(C)C=C(C#N)C(=O)C(C)(C)C7CCC6(C)C4(C)CC5)CC3)CCC3(C)C(C(=O)C=C4C5(C)C=C(C#N)C(=O)C(C)(C)C5CCC43C)C2C1 (stereo not shown) [EL165]
formation of large species (DLS) (recombinant Keap1 BTB): formation of large species over time
EC50 (Keap1): 342 nM

CC1(C)CCC2(C(=O)NCCOCCOCCOCCNC(=O)C34CCC(C)(C)CC3C3C(=O)C=C5C6(C)C=C(C#N)C(=O)C(C)(C)C6CCC5(C)C3(C)CC4)CCC3(C)C(C(=O)C=C4C5(C)C=C(C#N)C(=O)C(C)(C)C5CCC43C)C2C1 (stereo not shown) [EL151]
Keap1 in soluble and insoluble fraction (WB activity) (Keap1): no activity

CC1(C)CCC2(C(=O)NCCOCCOCCOCCOCCOCCOCCNC(=O)C34CCC(C)(C)CC3C3C(=O)C=C5C6(C)C=C(C#N)C(=O)C(C)(C)C6CCC5(C)C3(C)CC4)CCC3(C)C(C(=O)C=C4C5(C)C=C(C#N)C(=O)C(C)(C)C5CCC43C)C2C1 (stereo not shown) [EL152]
EC50 (Keap1): 904 nM
